A word on the solubility: it is the concentration that dissolves in the medium under given conditions.

Series [1] can be described thus: Stability of the crystal forms (general findings). Format: physicochemical. Particulars: ambient temperatures.
Series [2] in a line: Stability test, thermal treatment (sealed ampoules, 100° C., HPLC purity). Particulars: 1 week. Format: physicochemical. As for the experimental part: (§1) HPLC: HPLC measurements were carried out with a HP LC1090M, Column Symmetry C18, 3.0·150 mm.
The compounds of Examples 3(b) (polymorph A), 25 (polymorph B), and 36 (polymorph C) were placed in sealed ampoules and exposed for 1 week to 100° C. […] The products where analyzed by HPLC and the purity was detected to indicate chemical stability via decomposition.

Series [3] is described as follows: Stability test, exposure to humidity (open containers, 60° C., 75% relative humidity). It is filed as physicochemical. Particulars: 1 week and 2 weeks, listed as polymorph A. Here is the method:
as §1
The compounds of Examples 3(b) (polymorph A), 25 (polymorph B), and 36 (polymorph C) were placed in open containers and exposed 1 week and 2 weeks at 60° C. and 75% relative humidity. In polymorph A, a water content of 2.8% was detected and the HPLC purity was 80%.

Series [4] is described as follows: Approximate solubility of Form A: saturated solutions, gravimetric determination after solvent removal. Format: physicochemical. As for the experimental part:
Approximate solubility was measured by preparation of saturated solutions in various solvents and gravimetric determination of dissolved substance after solvent removal.

Series [5] is described as follows: Solubility statements in the description.
The nature of series [6]: Water absorption and behaviour on exposure to relative humidity. Format: physicochemical.
The nature of series [7]: physchem. Conditions: aqueous solubility.

For the compound `CC(C)COc1ccc(CNC(=O)N(Cc2ccc(F)cc2)C2CCN(C)CC2)cc1.CC(C)COc1ccc(CNC(=O)N(Cc2ccc(F)cc2)C2CCN(C)CC2)cc1.O=C(O)C(O)C(O)C(=O)O` [Form A, N-(4-fluorobenzyl)-N-(1-methylpiperidin-4-yl)-N′-(4-(2-methylpropyloxy)phenylmethyl)carbamide hemi-tartrate], the “Stability at ambient temperatures” value in series [1] was “stable”. In addition, the “State of the material after thermal treatment” value in series [2] is “formed a deliquescent compact material”. Besides, the “HPLC purity after thermal treatment” value in series [2] (listed as polymorph A) is recorded as 25.9%. The “HPLC purity after exposure to humidity” value in series [3] stood at 80%. Further, the “water content after exposure to humidity” value in series [3] is recorded as 2.8%. Also, the solubility in series [4] (aqueous with cosolvent or surfactant or cyclodextrin, thermodynamic from solid, acetone/water (1:1), read-out: Solubility) is more than 200000 µg/mL; in series [4] (ethanol), more than 10000 µg/mL; in series [4] (organic solvent or mixture, thermodynamic from solid, 1,4-dioxane, read-out: Solubility), approximately 2000 µg/mL; in series [4] (organic solvent or mixture, thermodynamic from solid, 2-propanol, read-out: Solubility) it was approximately 1000 µg/mL; in series [4] (organic solvent or mixture, thermodynamic from solid, 2-propanol/water (9:1), read-out: Solubility), less than 1000 µg/mL; in series [4] (organic solvent or mixture, thermodynamic from solid, acetone, read-out: Solubility) it was approximately 2000 µg/mL. The solubility in series [4] (organic solvent or mixture, thermodynamic from solid, acetonitrile, read-out: Solubility) is approximately 2000 µg/mL; in series [4] (organic solvent or mixture, thermodynamic from solid, dichloromethane, read-out: Solubility), more than 30000 µg/mL; in series [4] (organic solvent or mixture, thermodynamic from solid, dimethylsulfoxide, read-out: Solubility) it was more than 200000 µg/mL; in series [4] (organic solvent or mixture, thermodynamic from solid, ethyl acetate, read-out: Solubility), less than 1000 µg/mL; in series [4] (organic solvent or mixture, thermodynamic from solid, methanol, read-out: Solubility) it was more than 100000 µg/mL; in series [4] (organic solvent or mixture, thermodynamic from solid, methyl ethyl ketone, read-out: Solubility) it was less than 1000 µg/mL. In addition, the solubility in series [4] (organic solvent or mixture, thermodynamic from solid, t-butyl methyl ether, read-out: Solubility) is less than 1000 µg/mL; in series [4] (organic solvent or mixture, thermodynamic from solid, toluene, read-out: Solubility), less than 1000 µg/mL; in series [4] (tetrahydrofuran), more than 5000 µg/mL; in series [4] (thermodynamic from solid, water, read-out: Solubility), more than 300000 µg/mL. In addition, the “amount that can be dissolved in tetrahydrofuran” value in series [5] (tetrahydrofuran, reflux temperature) is reported as “about 200 mg/ml”. Moreover, the “Solubility in water or aqueous systems (in words)” value in series [5] (water) is given as “well soluble”. Besides, the “Water uptake when exposed to humidity” value in series [6] (above 75% relative humidity) is on record as “considerable water uptake”. Moreover, the “Stability under ambient water partial pressures” value in series [6] (relative humidities between 20% and 75%) is on record as “sufficient stability”.
`CC(C)COc1ccc(CNC(=O)N(Cc2ccc(F)cc2)C2CCN(C)CC2)cc1` [Form E, N-(4-fluorobenzyl)-N-(1-methylpiperidin-4-yl)-N′-(4-(2-methylpropyloxy)phenylmethyl)carbamide hemi-tartrate] gave a solubility in series [7] of more than 200000 µg/mL.

The values are drawn from patent US7790899B2, “Synthesis of N-(4-fluorobenzyl)-N-(1-methylpiperidin-4-yl)-N′-(4-(2-methylpropyloxy)phenylmethyl)carbamide and its tartrate salt and crystalline forms” (ACADIA Pharmaceuticals, Inc., priority 2004, dated 2010).
